Assay results as given in PMC10987521, “An all-in-one tetrazine reagent for cysteine-selective labeling and bioorthogonal activable prodrug construction” (Nature Communications, 2024).

How the values were obtained:
SKOV3 cells = assay: Cytotoxicity (CCK8, 48 h) of drugs, PDCs, activable-Drugs and TCO, SKOV3; format: cell-based, Human; conditions: Homo sapiens, SK-OV-3; SKOV3, 48 h, CCK8, n = 3; activable-Dox: RGD-Dox 2 h, then 200 μM TCO, 48 h in total
B16F10 melanoma tumor = assay: In vivo anticancer efficacy, subcutaneous B16F10 melanoma tumor model; parameters: species or system BALB/c nude mice
Experimental: Tumor-bearing mice were established by subcutaneously injecting a suspension of 5 × 10^5 B16F10 cells per mouse into the front flank of each nude mouse. When tumor volume reached 50−70 mm^3, the animals were randomly divided into five groups (n = 5). The mice were administered different compounds suspended in PBS via the tail vein every 3 days for a total of four times.
(§1) The mice underwent four treatment courses on day 0, day 3, day 6, and day 9. Tumor size and body weight were measured every day. Tumor volume was calculated via the following formula: V = 1/2 × (minor axis) × (major axis)[2].
(§2) After 12 days, the mice were sacrificed and dissected to obtain tumor tissues and main organs, including heart, liver, spleen, lung, and kidney. Subsequently, all tissues were fixed in a 4% paraformaldehyde solution, routinely paraffin-embedded and sectioned, and then stained with hematoxylin and eosin, as well as using TdT-mediated dUTP nick-end labeling (TUNEL) for subsequent pathological analysis. TUNEL-positive cells appeared fluorescent green, representing the apoptosis of tumor cells (nuclei were fluorescent blue, stained with DAPI).
13. In vivo anticancer efficacy […]
13.2 Calculation of the tumor growth inhibition values (TGI)
Tumor growth inhibition values (TGI) were calculated using the following formula: TGI (%) = (1 − RTVtreatment/
RTVcontrol)*100. RTV refers to relative tumor volume, representing the ratio of the volume at the end of treatment to the
volume at the beginning of treatment. […]

B16F10 cells [1] = assay: Comparison of cell uptake between RGD-Dox and Dox using flow cytometry; format: cell-based, Mouse
Experimental: (§3) B16F10 cells were cultured for 48 h. […]
(§4) 12.1 Calculation of the fluorescence coefficient (F c)
(§5) The Fc was the radio calculated
(§6) 12.2 Uptake calculation of the B16F10 cells […]
(§7) deviation were analyzed using Origin Pro 2015.
(§8) B16F10 cells, characterized by α vβ3
(§9) Following the incubation period, the
Subsequently, the cells were trypsinized and underwent three PBS rinses. […]

B16F10 cells [2] = assay: Cytotoxicity (CCK8, 48 h) of drugs, PDCs, activable-Drugs and TCO, B16F10; format: cell-based, Mouse; conditions: Mus musculus, B16-F10; B16F10, 48 h, CCK8, n = 3; activable-Dox: RGD-Dox 2 h, then 200 μM TCO, 48 h in total
LX2 cells = assay: Cytotoxicity (CCK8, 48 h) of drugs, PDCs, activable-Drugs and TCO, LX2; format: cell-based, Human; conditions: Homo sapiens, LX-2; LX2 (αvβ3-negative), 48 h, CCK8, n = 3; activable-Dox: RGD-Dox 2 h, then 200 μM TCO
[3] = system: B16F10, U87, SKOV3 and LX2 cells; assay: Cytotoxicity (CCK8, 48 h), figures stated across several cell lines; format: cell-based; conditions: read-out: IC50 values against all four cell lines
B16F10 cells [4] = assay: Cell uptake by fluorescence imaging, B16F10; format: cell-based, Mouse; conditions: B16F10 and LX2 cells, 10 μM, 2 h
Experimental: as §3, §4, §5, §6, §7, §8, §9
Subsequently, the cells were trypsinized and underwent three PBS rinses.
12 .4 Cell uptake analysis by fluorescence imaging

U87 cells = assay: Cytotoxicity (CCK8, 48 h) of drugs, PDCs, activable-Drugs and TCO, U87; format: cell-based, Human; conditions: Homo sapiens, U-87 MG; U87, 48 h, CCK8, n = 3; activable-Dox: RGD-Dox 2 h, then 200 μM TCO, 48 h in total
[5] = Body weight and organ histology in the B16F10 tumor model; format: in vivo, BALB/c nude mice
Experimental: as §1, §2

[6] = Labeling reaction kinetics between tetrazine 1 and Cys; format: physicochemical; conditions: 25 °C, PB (30% MeCN, 20 mM, pH 8.0), equal concentrations, UV-Vis 300 nm
Experimental: The second-order rate constant for the labeling reactions between tetrazine 1 and Cys was determined at 25 °C in PB (30% MeCN, 20 mM, pH 8.0) under second-order conditions using a 6000+ (Quawell) UV-Vis spectrophotometer. The concentrations of cysteine and tetrazine were identical. The specific difference in absorption wavelength (300 nm) between 1 and Cys-1 was measured over time. The second-order rate constant k2 was calculated from the slope of a plot of (1/c – 1/c0) versus time.
5. Competitive labeling reaction with other nucleophilic amino acids
For the competitive labeling experiment, 10 equiv. (2 mM) of N-Fmoc-Lys, N-Fmoc-Arg, Ser, Tyr, and 1.3 equiv. […] The resulting solution was maintained at 25 °C and monitored by LC –MS. […]
Each voTz analogue (1.1 equiv.) was added to a 0.25 mL vial containing solvent. […] The chromatogram peak areas of all relevant Cys -containing species were integrated, and the yiel d was determined using the following equation: Yield (%) = Iproduct/(Istarting + Iproduct + Ioxidation + Iside product) × 100, where Istarting, Iproduct, Ioxidation, and Iside product respectively represent the average ion counts of remaining starting material, product, oxidized starting material and any side product, if present 2. […]
DLS analyses and particle zeta potential values were determined using a Nano ZS ZEN 3690 instrument (Malvern […]

Row | Structure (SMILES) | IC50 (SKOV3 cells) [µM] | tumor growth inhibition values (TGI %) (B16F10 melanoma tumor; Data 5) [%] | tumor growth inhibition value (TGI) (B16F10 melanoma tumor; after four i.v. courses (days 0, 3, 6, 9), 3.67 μmol·kg^−1, n = 5, TGI = (1 − RTVtreatment/RTVcontrol)*100) [%] | tumor growth / inhibition in words (B16F10 melanoma tumor; four i.v. courses, 3.67 μmol·kg^−1 (TCO-P4 36.7 μmol·kg^−1), n = 5) | Normalized uptake (B16F10 cells [1]; normalized to Dox = 1, Data 1) | Normalized uptake (B16F10 cells [1]; normalized to Dox = 1, Data 2) | Normalized uptake (B16F10 cells [1]; normalized to Dox = 1, Data 3) | IC50 (B16F10 cells [2]) [µM] | IC50 (LX2 cells) [µM] | IC50 [3] [µM] | cellular uptake of free drug (imaging) (B16F10 cells [4]) | IC50 (U87 cells) [µM] | histology of heart, liver, spleen, lung, kidney ([5]; after 12 days) | body weight in words ([5]; four i.v. courses, 3.67 μmol·kg^−1, compared with PBS group) | second-order rate constant of the labeling reaction between 1 and Cys [6] [M⁻¹ s⁻¹]
1 | COc1cccc2c1C(=O)c1c(O)c3c(c(O)c1C2=O)C[C@@](O)(C(=O)CO)C[C@@H]3O[C@H]1C[C@H](N)[C@H](O)[C@H](C)O1 [Dox, doxorubicin] | 4.45 | 46.63 | 59.4 | slightly slowed the tumor growth | 1 | 1 | 1 | 2.05 | 3.37 | 2.05 to 4.45 | obvious uptake through nonspecific diffusion and internalization | 3.26 | typical inflammatory injury | serious loss of body weight | 
2 | C=Cc1nnc(-c2ccccc2)nn1 [compound 1, phenyl vinyltetrazine] |  |  |  |  |  |  |  |  |  |  |  |  |  |  | 13 ± 0.8
